69 compounds from PubChem BioAssay AID179 (DTP/NCI, 2004) can be followed below.

Activity calls are given as the source filed them.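 The calls were made as follows: active = compounds giving half or more protection of infected cells from virus-caused growth loss, again on retest; inactive = the rest.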

The experiment relates to CEM cells HIV-1 protection, formazan growth assay. Put plainly: NCI AIDS Antiviral Assay. Conditions: for IC50: measured here: growth of uninfected CEM cells. In outline:
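Protection of CEM cells against HIV-1 measured as cell growth via soluble formazan read-out, with five concentrations tested on both infected and uninfected cells; failure to protect may reflect toxicity.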

As to `OCC1NC(CC2OC(CO)C(O)C(O)C2O)C(O)C(O)C1O` (stereo unspecified), the EC50 was > 200 µM and the IC50 was > 200 µM.
With `CO[C@H](/C(C)=C/C=C/C(C)=C/c1coc(C)n1)[C@H](C)[C@H]1C[C@@H](O)[C@@]2(C)O[C@H]2/C=C/[C@@H](C)[C@@H]2C[C@@H](CC(=O)O2)C[C@H]2O[C@@H]2C(=O)O1`, the EC50 was > 0.219 µM and the IC50 was 0.00017 µM.
Turning to `C=CCc1cc(CN2CCN(C)CC2)c(O)c(OC)c1`, the EC50 was > 200 µM and the IC50 is > 200 µM.
With `CSc1cc(Cl)c(C)cc1S(=O)(=O)n1cc[nH]c1=O`, the EC50 was > 200 µM and the IC50 is > 200 µM.
On to `O=C(c1cccs1)N(C(=S)N1CCN(c2ccccn2)CC1)C1CCCCC1`, for which the EC50 is > 12.6 µM and the IC50 is 12.3 µM.
The like results for `O=c1nc2ccc3[nH]c(O)c4ccc1c2c34` were, in that order, > 200 µM and 178 µM.
In the case of `COc1cc(C2c3cc4c(cc3OC3(N5CCCC5)CCCC23)OCO4)cc(OC)c1OC` (stereo unspecified), the EC50 was > 550 µM and the concentration for half-maximal inhibition (IC50) was 2.82 µM.
With `Cc1ccc2ccc(=O)oc2c1`, the EC50 was > 309 µM and the IC50 is > 309 µM.
Take `CC(C)(C)c1cc(CCC(=O)Nc2ccc(Cl)cc2)[nH]c(=S)n1`: the EC50 was > 513 µM and the IC50 is > 513 µM.
Turning to `NCCCCCNOCCCN`, the EC50 is > 200 µM and the IC50 is 132 µM.
For the compound `O=C(Nc1ccc(C(=O)O)c(O)c1)c1ccc(C(=O)Nc2ccc(C(=O)O)c(O)c2)cc1`, the EC50 is > 200 µM and the IC50 stood at 89.1 µM.
For `COc1ccc(/C=c2/sc3n(c2=O)C(c2ccccc2)C2(O)CCCCC2N=3)cc1` (stereo unspecified), the EC50 was > 200 µM and the IC50 is > 200 µM.
For `COc1ccccc1NC(=O)CC(=O)N1N=C(c2ccccc2)C(N=Nc2ccc(Cl)cc2)C1=O` (stereo unspecified), the EC50 was > 74.1 µM and the IC50 was found to be 64.6 µM.
As to `CC(=O)C1CC[C@@H](C)[C@@H]2CC[C@@]3(C)OO[C@@]12[C@H](OC=O)O3` (stereo partly specified), the EC50 is > 200 µM and the IC50 was determined as 27.5 µM.
Regarding `Cc1cc(C)c2c(c1)CSCc1cc(C)cc(C)c1-2`, the outcome was inactive.
As to `Cc1ccc(SSCCN)cc1`, the EC50 was > 200 µM and the IC50 worked out at 11.7 µM.
On to `NC(=N\N=C/c1ccc(Cl)c(Cl)c1)/C(N)=N\N=C/c1ccc(Cl)c(Cl)c1`, for which the result was inactive.
For `CCOC(=O)c1cc(-c2ccccc2)c(=O)c(OC)nc1-c1ccccc1`, the EC50 is > 200 µM and the IC50 was found to be 74.1 µM.
With `CCOC(=O)C(NC(=O)c1ccccc1)(N1CCOCC1)C(F)(F)F` (stereo unspecified), the EC50 was > 200 µM and the IC50 is > 200 µM.
With `CC1=C(C(=O)Nc2ccc(C)cc2)C(c2cccc([N+](=O)[O-])c2)C(C(=O)Nc2ccc(C)cc2)=C(C)N1`, the EC50 was > 14.5 µM and the IC50 is > 14.5 µM.
For `CC(=O)/C(=C/N1CCNC1=S)C(=O)Nc1ccccc1C`, the EC50 was > 200 µM and the IC50 was > 200 µM.
For `OC(CNc1ncccn1)c1ccccc1` (stereo unspecified), the EC50 was > 200 µM and the IC50 is > 200 µM.
As to `N#Cc1c(/C=C/c2ccccc2)c2c([nH]c1=S)CCCCC2`, the EC50 is 339 µM and the IC50 worked out at 501 µM.
As for `CC(C)(C)C(=O)OCC(COC(=O)C(C)(C)C)[N+](=O)[O-]`, the result was inactive.
For `Cc1ccc(/C=N\NC2c3cc(Cl)ccc3Nc3nc(=O)[nH]c(C)c32)cc1` (stereo unspecified), the EC50 was > 200 µM and the IC50 was 120 µM.
`C[C@]12CCC(=O)C=C1CC[C@@H]1C2CC[C@@]2(C)C1CC[C@@H]2OC(=O)C12OC1CCC2=O` (stereo partly specified): the EC50 is > 200 µM and the IC50 is 10.7 µM.
Turning to `CC1(C(=O)O)CCCC2(C)C3=CC(=O)CCC3=CCC12` (stereo unspecified), the EC50 is > 200 µM and the IC50 worked out at 186 µM.
The like results for `Cc1ccc(NC(=O)c2cc3c(cc2Cl)Sc2nccn2S3(=O)=O)cc1` were, in that order, > 200 µM and 61.7 µM.
Regarding `CC(C)(CCCCC(C)(C)[N+](C)(C)C)[N+](C)(C)C`, the EC50 was > 200 µM and the IC50 was > 200 µM.
As for `O=[N+]([O-])c1ccc(-n2nnc3ccccc32)nc1`, the EC50 is > 200 µM and the IC50 is > 200 µM.
Regarding `COC(=O)C1=C(C)N(NC(=O)Nc2ccccc2)C2(N)N(NC(=O)Nc3ccccc3)C(C)=C(C(=O)OC)C12C(=O)OC` (stereo unspecified), the EC50 is > 31.6 µM and the IC50 was > 31.6 µM.
`Nc1nc2c3nc(Nc4ccccc4)sc3nc(=O)n2c2sc(Nc3ccccc3)nc12`: the EC50 is > 5.89 µM and the IC50 is > 5.89 µM.
For `[N-]=[N+]=Nc1cccc(-c2n[nH]c(Cl)cc2=O)c1`, the EC50 was > 200 µM and the IC50 is > 200 µM.
For the compound `COc1ccc(/C(=N/OCCCC(=O)O)c2cccs2)cc1`, the outcome was inactive.
In the case of `O=C(O)C1(Cc2ccc3c(c2)CCC3)Cc2ccccc2C1`, the EC50 is > 200 µM and the 50% inhibitory concentration (IC50) came out at 81.3 µM.
On to `CCC1(CC)C(=O)N(C(=O)c2ccccc2)N(C(=O)c2ccc(Cl)cc2)C1=O`, for which the EC50 was > 200 µM and the IC50 is 50.1 µM.
Consider `COc1ccc2ccccc2c1C1OC(=O)c2ccccc21` (stereo unspecified), for which the EC50 was > 46.8 µM and the IC50 turned out to be 28.8 µM.
For `O=C(CNc1ccc([N+](=O)[O-])cc1)Nn1c(-c2ccccc2)nc2ccccc2c1=O`, the EC50 was > 200 µM and the IC50 turned out to be 4.17 µM.
As to `COc1ccc(C(=O)O)c(Cc2ccc3ccccc3c2)c1`, the outcome was inactive.
Turning to `C=C(C)[C@@H]1CC[C@]2(COC(=O)CC3(CC(=O)O)CCCC3)CC[C@]3(C)[C@H](CC[C@@H]4[C@@]5(C)CC[C@H](OC(=O)CC6(CC(=O)O)CCCC6)C(C)(C)[C@@H]5CC[C@]43C)[C@@H]12`, the EC50 was > 200 µM and the IC50 was determined as 5.89 µM.
On to `CCCNC(C#N)c1ccc(OCCCCCCCCCCOc2ccc(C(C#N)NCCC)cc2)cc1` (stereo unspecified), for which the EC50 was > 200 µM and the IC50 came to 11 µM.
For the compound `CC/C=C\C/C=C\C/C=C\CCCCCCCC(=O)OCC(O)CO` (stereo unspecified), the EC50 is > 28.2 µM and the IC50 was > 28.2 µM.
Turning to `N#Cc1c(N)[nH]c(=S)c(C#N)c1-c1ccccc1`, the EC50 was > 200 µM and the IC50 turned out to be 135 µM.
As for `CC1C(c2ccccc2)SC(=N)N1C` (stereo unspecified), the EC50 is > 417 µM and the IC50 amounted to 257 µM.
Take `Cc1cn([C@H]2C[C@@H]3[C@@H](COC(CCN=[N+]=[N-])N3O)O2)c(=O)[nH]c1=O` (stereo partly specified): the EC50 is 72.4 µM and the IC50 was > 200 µM.
As for `Cc1ccc(C2=C/C(=C/c3ccc(N(CCC#N)CCC#N)cc3)C(=O)O2)cc1`, the EC50 was > 200 µM and the IC50 was > 200 µM.
For `O=C(c1cccs1)N1CCCN(C(=O)c2cccs2)C1=S`, the EC50 is > 200 µM and the IC50 was > 200 µM.
As for `SC1N=C(c2ccco2)N2C(S)N=C(c3ccccc3)N12` (stereo unspecified), the EC50 is > 200 µM and the IC50 is 182 µM.
In the case of `CCC1(O)C(=O)OCc2c1cc1n(c2=O)Cc2cc3ccc(CO)cc3nc2-1` (stereo unspecified), the EC50 is > 10 µM and the IC50 was determined as 1.51 µM.
On the same counts, the results for `CCOc1c(Cc2ccccc2)c(=O)n2c3ccccc3n3c(=O)n(C)c(=O)c1c23` are > 6.46 µM and > 6.46 µM.
With `CC1(C)OCC(COC(=O)NCn2cc(-c3ccccc3)nn2)O1` (stereo unspecified), the EC50 is > 200 µM and the IC50 is > 200 µM.
Turning to `CC[C@H]1OC(=O)[C@H](C)[C@@H](OC2CC(C)(OC)C(O)C(C)O2)[C@H](C)[C@@H](OC2OC(C)CC(N(C)C)C2OC(=O)CCC2CCCC2)[C@](C)(O)C[C@@H](C)C(=O)[C@H](C)[C@@H](O)[C@]1(C)O` (stereo partly specified), the EC50 was > 100 µM and the IC50 was 40.7 µM.
Take `NC(CCCCNC(=O)CNC(=O)OCc1ccccc1)C(=O)NC(CCCCNC(=O)CNC(=O)OCc1ccccc1)C(=O)NC(CCCCNC(=O)CNC(=O)OCc1ccccc1)C(=O)NC(CCCCNC(=O)CNC(=O)OCc1ccccc1)C(=O)NC(CCCCNC(=O)CNC(=O)OCc1ccccc1)C(=O)NC(CCCCNC(=O)CNC(=O)OCc1ccccc1)C(=O)O` (stereo unspecified): the EC50 is > 100 µM and the IC50 is > 100 µM.
As for `O=C(NCCCCN(CCCNC(=O)C(F)(F)F)Cc1ccc2ccccc2c1)C(F)(F)F`, the EC50 is > 200 µM and the IC50 was found to be 34.7 µM.
For the compound `CCOC/N=C(/N)NC#N`, the EC50 was > 631 µM and the IC50 was > 631 µM.
For `C=CCNC(=S)N/C=C(\c1ccccc1)S(=O)Cc1ccccc1` (stereo unspecified), the EC50 was > 200 µM and the IC50 is > 200 µM.
For `COc1cc2c(cc1OC)CC(=O)Nc1cc(OC)c(OC)cc1CC2`, the outcome was inactive.
Turning to `Cc1cnc(SCCN(C)C)nc1-c1ccc(-c2nc(SCCN(C)C)ncc2C)s1`, the EC50 is > 13.5 µM and the IC50 was 12.6 µM.
As to `CN(C)c1ccc(/C=c2\sc3nnc(-c4ccco4)n3c2=O)cc1`, the EC50 is > 11.2 µM and the IC50 is > 11.2 µM.
For `COc1cc2cc(C(=O)N3CC(CCl)c4c3cc(N)c3ccccc43)[nH]c2c(OC)c1OC` (stereo unspecified), the EC50 is > 0.2 µM and the IC50 amounted to 0.000832 µM.
The like results for `COC(=O)/C=C1/N=C(N(C)/N=C/c2ccccc2)NC1=O` were, in that order, > 200 µM and > 200 µM.
For `c1ccc(SC2CC[C@H]3CCCC[C@H]3O2)cc1` (stereo partly specified), the result was inactive.
In the case of `CCCCCCCCCCOCC(COCCOCC(COCCCCCCCCCC)OCCCS(=O)(=O)O)OCCCS(=O)(=O)O` (stereo unspecified), the EC50 was > 204 µM and the IC50 is 107 µM.
On to `CCC1(CCO)C(=O)NC(=Nc2ccccc2)NC1=O` (stereo unspecified), for which the EC50 is > 479 µM and the IC50 is > 479 µM.
For `Cc1ccc(S(=O)(=O)n2cc(C#N)c(C#N)c2)cc1`, the EC50 is > 200 µM and the IC50 is 57.5 µM.
On the same counts, the results for `COc1cc2nncc(SCc3ccc(Cl)c(Cl)c3)c2cc1OC` are > 39.8 µM and 4.57 µM.
Take `O=C(Nc1ccc(Cl)cc1)Nc1cccc2nsnc12`: the EC50 was > 32.4 µM and the IC50 came out at 20.4 µM.
Turning to `CCOc1ccc(/C=N\N2C(=O)c3ccccc3C2=O)cc1`, the EC50 was > 123 µM and the IC50 is > 123 µM.
As for `O=C(CCCC(=O)Nc1ccc(Cl)cc1Cl)CC(=O)c1ccc2ccccc2c1`, the EC50 was > 417 µM and the IC50 is > 417 µM.

In general, EC50 refers to the concentration at which the effect is half-maximal. Usually IC50 stands for the concentration needed to halve the response being measured. Read a high IC50 as weaker potency in that assay.
